Laboratory results: patent US5847160A, “Acetylenes disubstituted with 2-tetrahydropyranoxy-aryl and aryl of heteroaryl groups having retinoid-like biological activity” (Allergan, priority 1997, dated 1998)

Tested on: ornithine decarboxylase (ODC)
Assay: ODC assay: inhibition of TPA induction of ODC activity
Assay type: in vivo
Conditions: at conc 30 (nmol); TPA-induced ODC
Excerpt: The retinoic acid-like activity of these compounds is confirmed through the classic measure of retinoic acid activity involving the effects of retlnoic acid on ornithine decarboxylase. The original work on the correlation between retinoic acid and decrease in cell proliferation was done by Verma & Boutwell, Cancer Research, 1977, 37,2196-2201. That reference discloses that ornithine decarboxylase (ODC) activity increased precedent to polyamine biosynthesis. It has been established elsewhere that increases in polyamine synthesis can be correlated or associated with cellular proliferation. Thus, if ODC activity could be inhibited, cell hyperproliferation could be modulated. […] Activity of exemplary compounds of the present invention in the above- described ODC assay is disclosed in Table 2 which provides either IC80 (or other measured per cent inhibition at the indicated concentration) for the respective exemplary compound.

SMILES	% of inhib [%]
CCOC(=O)c1ccc(C#Cc2ccc(OC3CCCCO3)c(C34CC5CC(CC(C5)C3)C4)c2)cc1 (stereo not drawn) [Compound 9]	49
COC(=O)c1ccc(C#Cc2ccc(OC3CCCCO3)c(C34CC5CC(CC(C5)C3)C4)c2)cc1 (stereo not drawn) [Compound 25]	61

Same assay, conditions: at conc 300 (nmol); TPA-induced ODC

SMILES	% of inhib [%]
O=C(O)c1ccc(C#Cc2ccc(OC3CCCCO3)cc2)nc1 (stereo not drawn) [Compound 15, 6-[2-[[1-(2-tetrahydropyranoxy)]-4-phenyl]ethyn-1-yl]nicotinic acid]	44
CCOC(=O)c1ccc(C#Cc2cccc(OC3CCCCO3)c2)nc1 (stereo not drawn) [Compound 16, Ethyl 6-[2-[[1-(2-tetrahydropyranoxy)]-3-phenyl]ethyn-1-yl]nicotinate]	52
CCOC(=O)c1ccc(C#Cc2ccc(C34CC5CC(CC(C5)C3)C4)c(OC3CCCCO3)c2)nc1 (stereo not drawn) [Compound 17]	68
CCOC(=O)c1ccc(C#Cc2ccc(C34CC5CC(CC(C5)C3)C4)c(OC3CCCCO3)c2)cc1 (stereo not drawn) [Compound 18, Ethyl 4-[2-[[2-(1-adamantyl)-1-(2-tetrahydropyranoxy)]-5-phenyl]ethyn-1-yl]benzoate]	45
O=C(O)c1ccc(C#Cc2ccc(C34CC5CC(CC(C5)C3)C4)c(OC3CCCCO3)c2)nc1 (stereo not drawn) [Compound 19]	45

Tested on: ornithine decarboxylase (ODC)
Assay: not given
Conditions: general knowledge; cited from earlier work

SMILES	effect on ODC activity
CCCCCCCCCCCCCC(=O)O[C@@H]1[C@@H](C)[C@@]2(O)[C@@H](C=C(CO)C[C@]3(O)C(=O)C(C)=C[C@@H]23)[C@@H]2C(C)(C)[C@]12OC(C)=O [12-0-tetradecanoylphorbol-13-acetate]	induces ODC activity
CC1=C(/C=C/C(C)=C/C=C/C(C)=C/C(=O)O)C(C)(C)CCC1 [Retinoic acid]	inhibits this induction of ODC activity by TPA
